Test results reported in patent US8022205B2, “Pyrimidine derivatives as PI3K inhibitor and use thereof” (Chugai Seiyaku Kabushiki Kaisha, priority 2006, dated 2011).
Structures can show the parent of a compound that is named as a salt.

How the values were obtained:
human PI3K(p110α/p85α) = human PI3K(p110α/p85α) (Homo sapiens, UniProt P42336); experiment: Measurement of PI3K inhibitory activity (AlphaScreen GST Detection Kit); type: biochemical; conditions: 10 μM ATP, 4 μM PI(4,5)P2, read-out: Enzyme inhibitory activity (IC50, μM) PI3K α
Protocol: The inhibitory activity of compounds of the present invention represented by formula (I) were measured with human PI3K(p110α/p85α) prepared in a baculovirus expression system using the AlphaScreen GST Detection Kit (Perkin Elmer, Inc.). A predetermined concentration of the compound dissolved in dimethylsulfoxide (DMSO) and PI3K were mixed in a 384-well assay plate and after allowing to stand for 20 minutes at room temperature, 4 μM PI(4,5)P2 (Echelon Corporation) and 10 μM ATP (5 mM Hepes, pH 7.5, 2.5 mM MgCl2) were added to initiate the reaction. After reacting for 15 minutes at 37° C., GST-GRP1 expressed and purified from Escherichia coli, Anti-GST Acceptor Beads (Perkin Elmer, Inc.), Streptavidin Donor Beads (Perkin Elmer, Inc.) and biotin-PI(3,4,5) P3 (Echelon Corporation) (10 mM Tris-HCl pH 7.4, 150 mM NaCl, 7.5 mM EDTA, 1 mM DTT, 0.1% Tween 20) were added, and after allowing to stand for 1 hour at room temperature, light at 520 to 620 nm emitted as a result of exciting with light at 680 nm was measured with the Envision measuring instrument (Perkin Elmer, Inc.).
Test Example 1 described above can be performed according to “Analytical Biochemistry, 2003, 313, 234-245; Alexander Gray et al”.

[1] = tested on: human colon cancer cell line HCT116; experiment: Cell proliferation inhibitory activity (Cell Counting Kit-8), colon cancer HCT116; type: cell-based; conditions: HCT-116, 96 h, HCT116, 4 days
Protocol: (§1) The cell proliferation inhibitory activity was measured for compounds of the present invention represented by formula (I). Cancer cell proliferation inhibitory activity was measured using the Cell Counting Kit-8 (Dojindo). 2000 cells each of human colon cancer cell line HCT116 purchased from the American Type Culture Collection (Virginia, USA) were seeded into each well of a 96-well culture plate followed by the addition of a predetermined concentration of the compounds and cultivating in a CO2environment for 4 days at 37° C. On the fourth day of cultivating, the Cell Counting Kit-8 solution was added and absorbance (measuring wavelength: 450 nm, reference wavelength: 615 nm) was measured in accordance with the protocol provided with the kit.

[2] = tested on: human prostate cancer cell line PC3; experiment: Cell proliferation inhibitory activity (Cell Counting Kit-8), prostate cancer PC3; type: cell-based; conditions: 96 h, PC3, 4 days
Protocol: as §1
(§2) Cancer cell proliferation inhibitory activity was also measured for human lung cancer cell line NCI-H460 and human prostate cancer cell line PC3 purchased from the American Type Culture Collection. 1000 and 3000 cells of NCI-H460 and PC3, respectively, were seeded into each well of a 96-well culture plate followed by testing in the same manner as the human colon cancer cell line and calculating the percentage of cell proliferation inhibition at 2.5 μM.

[3] = tested on: human lung cancer cell line NCI-H460; experiment: Cell proliferation inhibitory activity (Cell Counting Kit-8), lung cancer NCI-H460; type: cell-based; conditions: 96 h, NCI-H460, 4 days, read-out: Cell proliferation inhibitory activity (% Inhibition at 2.5 μM) Non-small cell lung cancer (NCI-H460)
Protocol: as §1, §2

Sequence of human PI3K(p110α/p85α) (P42336 whole entry): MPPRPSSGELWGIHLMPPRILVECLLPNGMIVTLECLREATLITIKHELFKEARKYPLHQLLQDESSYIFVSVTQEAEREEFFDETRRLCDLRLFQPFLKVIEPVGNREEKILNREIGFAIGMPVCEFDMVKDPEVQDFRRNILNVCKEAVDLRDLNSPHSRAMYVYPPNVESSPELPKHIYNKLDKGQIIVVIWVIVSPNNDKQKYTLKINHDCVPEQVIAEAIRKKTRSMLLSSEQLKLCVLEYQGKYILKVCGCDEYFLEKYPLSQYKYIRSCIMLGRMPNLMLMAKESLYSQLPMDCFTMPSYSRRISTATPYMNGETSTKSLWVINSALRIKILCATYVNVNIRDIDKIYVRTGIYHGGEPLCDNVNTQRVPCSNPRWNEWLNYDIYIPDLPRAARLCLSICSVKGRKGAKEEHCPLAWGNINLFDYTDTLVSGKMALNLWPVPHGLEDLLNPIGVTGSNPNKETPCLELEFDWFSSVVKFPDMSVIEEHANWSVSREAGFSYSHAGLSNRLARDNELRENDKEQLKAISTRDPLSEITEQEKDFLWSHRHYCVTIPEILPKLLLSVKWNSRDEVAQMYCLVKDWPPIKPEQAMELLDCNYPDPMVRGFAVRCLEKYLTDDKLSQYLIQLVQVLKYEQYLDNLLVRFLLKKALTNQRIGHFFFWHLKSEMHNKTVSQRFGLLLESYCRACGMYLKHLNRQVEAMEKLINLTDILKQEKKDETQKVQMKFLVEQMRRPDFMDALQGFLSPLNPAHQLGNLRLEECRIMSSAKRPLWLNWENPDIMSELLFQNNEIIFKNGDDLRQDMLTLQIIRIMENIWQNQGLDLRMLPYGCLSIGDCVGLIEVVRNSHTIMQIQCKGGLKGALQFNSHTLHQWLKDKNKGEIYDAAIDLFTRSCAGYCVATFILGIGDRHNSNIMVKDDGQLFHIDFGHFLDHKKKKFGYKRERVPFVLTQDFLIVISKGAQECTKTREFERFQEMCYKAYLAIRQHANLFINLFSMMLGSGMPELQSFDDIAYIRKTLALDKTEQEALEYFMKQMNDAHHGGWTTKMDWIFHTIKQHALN
Sequence of human PI3K(p110α/p85α) (P27986 whole entry partner): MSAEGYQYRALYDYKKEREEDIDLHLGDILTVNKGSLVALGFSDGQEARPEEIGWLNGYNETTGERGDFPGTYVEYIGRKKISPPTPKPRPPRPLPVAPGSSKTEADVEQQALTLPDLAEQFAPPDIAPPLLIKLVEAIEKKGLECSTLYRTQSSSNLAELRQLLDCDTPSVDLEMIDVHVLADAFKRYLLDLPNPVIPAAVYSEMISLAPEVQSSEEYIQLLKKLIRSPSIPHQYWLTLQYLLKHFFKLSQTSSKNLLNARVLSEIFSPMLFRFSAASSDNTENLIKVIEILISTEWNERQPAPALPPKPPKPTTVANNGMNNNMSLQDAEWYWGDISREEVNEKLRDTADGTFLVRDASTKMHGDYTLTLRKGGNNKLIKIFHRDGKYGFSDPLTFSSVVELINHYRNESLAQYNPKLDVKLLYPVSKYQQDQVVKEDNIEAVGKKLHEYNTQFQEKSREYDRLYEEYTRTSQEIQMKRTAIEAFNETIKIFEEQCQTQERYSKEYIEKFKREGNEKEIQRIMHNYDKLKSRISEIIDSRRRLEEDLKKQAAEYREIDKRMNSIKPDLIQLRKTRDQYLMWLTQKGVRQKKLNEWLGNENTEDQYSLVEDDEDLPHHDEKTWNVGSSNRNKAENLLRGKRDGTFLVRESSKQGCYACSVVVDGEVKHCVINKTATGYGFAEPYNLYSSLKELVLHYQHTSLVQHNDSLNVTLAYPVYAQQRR

SMILES	IC50 (human PI3K(p110α/p85α)) [µM]	inhibition at 2.5 µM [1] [%]	inhibition at 2.5 µM [2] [%]	inhibition at 2.5 µM [3] [%]
Oc1cccc(-c2nc(N3CCOCC3)nc3c2CCN3c2ccncc2)c1 [Example A-09, 3-(2-Morpholin-4-yl-7-pyridin-4-yl-6,7-dihydro-5H-pyrrolo[2,3-d]pyrimidin-4-yl)-phenol]	0.009	83	96	84
Oc1cccc(-c2nc(N3CCOCC3)nc3c2CCN3c2ccc3[nH]cnc3c2)c1 [Example A-14, 3-[7-(1H-benzimidazol-5-yl)-2-morpholin-4-yl-6,7-dihydro-5H-pyrrolo[2,3-d]pyrimidin-4-yl]-phenol]	0.08	76	98	95
Oc1cc(-c2nc(N3CCOCC3)nc3c2CCN3c2ccncc2)ccc1F [Example A-32, 2-Fluoro-5-(2-morpholin-4-yl-7-pyridin-4-yl-6,7-dihydro-5H-pyrrolo[2,3-d]pyrimidin-4-yl)-phenol trifluoroacetic acid salt]	0.24	81	81	79
Oc1cccc(-c2nc(N3CCOCC3)nc3c2CCN3c2ccnc(N3CCOCC3)c2)c1 [Example A-44, 3-[2-Morpholin-4-yl-7-(2-morpholin-4-yl-pyridin-4-yl)-6,7-dihydro-5H-pyrrolo[2,3-d]pyrimidin-4-yl]-phenol]	0.05	69	79	82
CS(=O)(=O)N1CCc2c(-c3cnc(N)nc3)nc(N3CCOCC3)nc21 [Example D-02, 5-(7-Methanesulfonyl-2-morpholin-4-yl-6,7-dihydro-5H-pyrrolo[2,3-d]pyrimidin-4-yl)-pyrimidin-2-ylamine]	–	81	87	83
Nc1ncc(-c2nc(N3CCOCC3)nc3c2CCN3c2ccc(CN3CCN(CCCCF)CC3)cc2)cn1 [Example D-330, 5-(7-{4-[4-(4-fluorobutyl)-piperazin-1-ylmethyl]-phenyl}-2-morpholin-4-yl-6,7-dihydro-5H-pyrrolo[2,3-d]pyrimidin-4-yl)-pyrimidin-2-ylamine]	–	25	0	-13

Continued, in another order:

IC50 (human PI3K(p110α/p85α)) [µM]	SMILES	inhibition at 2.5 µM [1] [%]	inhibition at 2.5 µM [2] [%]	inhibition at 2.5 µM [3] [%]
0.02	CS(=O)(=O)Nc1cccc(N2CCc3c(-c4cccc(O)c4)nc(N4CCOCC4)nc32)c1 [Example A-48, N-{3-[4-(3-hydroxy-phenyl)-2-morpholin-4-yl-5,6-dihydro-pyrrolo[2,3-d]pyrimidin-7-yl]-phenyl}-methane sulfonamide trifluoroacetic acid salt]	55	62	67
0.03	Nc1ncc(-c2nc(N3CCOCC3)nc3c2CCN3c2cccnc2)cn1 [Example B-02, 5-(2-Morpholin-4-yl-7-pyridin-3-yl-6,7-dihydro-5H-pyrrolo[2,3-d]pyrimidin-4-yl)-pyrimidin-2-ylamine]	87	96	95
0.24	Nc1ccc(-c2nc(N3CCOCC3)nc3c2CCN3c2ccncc2)cn1 [Example B-03, 5-(2-Morpholin-4-yl-7-pyridin-4-yl-6,7-dihydro-5H-pyrrolo[2,3-d]pyrimidin-4-yl)-pyridin-2-ylamine]	100	95	97
0.26	COc1ncc(-c2nc(N3CCOCC3)nc3c2CCN3c2cccnc2)c(OC)n1 [Example B-09, 4-(2,4-Dimethoxy-pyrimidin-5-yl)-2-morpholin-4-yl-7-pyridin-3-yl-6,7-dihydro-5H-pyrrolo[2,3-d]pyrimidine]	45	56	67
